Tests used:
[1] = tested on: Airway smooth muscle tissues; experiment: Airway smooth muscle contracted by carbachol; settings: ongoing studies
From the text: Airway smooth muscle tissues were contracted by carbachol. The inhibitory effects of isomers, enantiomeric pairs and a racemic mixture of ractopamine are being investigated.
Test results from these functional studies verify and support the results from the receptor binding studies.

adrenergic beta-receptor = experiment: Adrenergic beta-receptor stimulating activity of the isomers; settings: compared with RR-ractopamine; this document and Shappell et al, 2000
From the text: J. Anim. Sci. 2000, 78: 699-708, which publication is hereby included in its entirety by reference.)

[2] = tested on: adrenergic alpha-receptors; settings: isolated smooth and cardiac muscle tissues of rat and guinea pig; Colbert et al. 1991; cited from earlier work
beta-3 receptors = beta-3 receptors (Homo sapiens, UniProt P13945); settings: background statement; cited from earlier work
beta-3 receptors, sequence (P13945 whole entry): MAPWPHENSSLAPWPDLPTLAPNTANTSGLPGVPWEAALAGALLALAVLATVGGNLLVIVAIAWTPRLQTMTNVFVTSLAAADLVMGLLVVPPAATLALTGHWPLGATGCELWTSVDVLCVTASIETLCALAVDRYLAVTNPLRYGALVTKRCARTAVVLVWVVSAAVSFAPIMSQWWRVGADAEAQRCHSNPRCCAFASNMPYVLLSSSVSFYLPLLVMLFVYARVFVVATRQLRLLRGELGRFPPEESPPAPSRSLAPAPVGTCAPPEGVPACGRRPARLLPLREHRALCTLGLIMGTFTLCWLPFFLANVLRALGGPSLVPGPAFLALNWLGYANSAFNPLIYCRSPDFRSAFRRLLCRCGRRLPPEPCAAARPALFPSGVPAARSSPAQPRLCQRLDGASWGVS

[3] = tested on: adrenergic beta-receptors in adipose tissue; settings: animals exposed to the drug; Spurlock et al. 1994; cited from earlier work
livestock animals = settings: Marchant-Forde et al., cited from earlier work; for tachycardia in livestock animals: 2003 and London et al. 2005
[4] = biological target: adrenergic beta-3 receptors (Homo sapiens, UniProt P13945); experiment: Receptor binding, beta-3 (present studies)
adrenergic beta-3 receptors, sequence (P13945 whole entry): as above

mice [5] = experiment: Stress testing in mice, methodology of Aberg (U.S. Pat. No. 6,372,799)
laboratory animals = experiment: Neuropharmacological profile (Irwin test), repeated oral administration
[6] = biological target: adrenergic beta-1 receptors (Homo sapiens, UniProt P08588); experiment: Receptor binding studies, beta-1
adrenergic beta-1 receptors, sequence (P08588 whole entry): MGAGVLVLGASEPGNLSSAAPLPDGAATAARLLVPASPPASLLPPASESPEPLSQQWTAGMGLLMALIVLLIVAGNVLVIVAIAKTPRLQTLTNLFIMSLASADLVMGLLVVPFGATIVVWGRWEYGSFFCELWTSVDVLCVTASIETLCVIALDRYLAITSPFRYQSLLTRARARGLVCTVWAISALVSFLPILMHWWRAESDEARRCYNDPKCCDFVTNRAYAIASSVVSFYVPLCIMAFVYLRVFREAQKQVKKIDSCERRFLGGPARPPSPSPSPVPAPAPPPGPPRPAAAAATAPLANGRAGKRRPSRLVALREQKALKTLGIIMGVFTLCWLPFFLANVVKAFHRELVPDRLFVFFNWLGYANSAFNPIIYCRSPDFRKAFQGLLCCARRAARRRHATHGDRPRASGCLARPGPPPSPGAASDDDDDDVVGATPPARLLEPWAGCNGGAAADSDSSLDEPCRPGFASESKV
From the text: Interesting and important advantages of receptor selectivity by RR-ractopamine were found.

mice [7] = experiment: Spontaneous motor activity in mice (part of Irwin tests); format: in vivo; settings: oral
[8] = biological target: porcine adrenergic β-2 receptors (Sus scrofa, UniProt Q28997); settings: Mills et al., 2003; cited from earlier work
porcine adrenergic β-2 receptors, sequence (Q28997 whole entry): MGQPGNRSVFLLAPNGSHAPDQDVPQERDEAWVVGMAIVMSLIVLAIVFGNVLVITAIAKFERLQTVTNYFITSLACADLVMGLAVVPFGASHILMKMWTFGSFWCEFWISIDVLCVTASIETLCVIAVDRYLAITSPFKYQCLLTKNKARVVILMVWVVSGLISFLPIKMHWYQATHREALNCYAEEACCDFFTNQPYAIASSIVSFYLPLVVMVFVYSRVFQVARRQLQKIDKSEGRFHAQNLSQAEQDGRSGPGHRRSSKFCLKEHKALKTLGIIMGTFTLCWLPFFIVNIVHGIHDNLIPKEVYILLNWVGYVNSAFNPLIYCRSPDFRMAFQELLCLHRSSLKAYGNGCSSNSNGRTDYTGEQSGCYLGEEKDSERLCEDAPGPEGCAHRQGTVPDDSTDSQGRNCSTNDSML

C[C@@H](CCc1ccc(O)cc1)NC[C@@H](O)c1ccc(O)cc1 (racemic) [SS-ractopamine]
airway smooth muscle relaxing activity [1]: very weak activity | adrenergic beta-receptor stimulating activity (adrenergic beta-receptor): completely devoid of adrenergic beta-receptor stimulating activity

CC(CCc1ccc(O)cc1)NCC(O)c1ccc(O)cc1.Cl (racemic) [racemic ractopamine, 4-hydroxy-a-[[[3-(4-hydroxyphenyl)-1-methylpropyl]amino]methyl]benzenemethanol hydrochloride]
effect on adrenergic alpha-receptors [2]: no significant effect | affinity for beta-3 receptors (beta-3 receptors): negligible affinity | reduction of the concentration of adrenergic beta-receptors in adipose tissue [3]: 50% | CNS-mediated stress in livestock animals (livestock animals; 2003): cause CNS-mediated stress | tachycardia in livestock animals (livestock animals): significant tachycardia | affinity for adrenergic beta-3 receptors [4]: neither racemic ractopamine nor any of the ractopamine isomers had affinity | CNS-mediated stress (mice [5]; mice, ongoing testing): demonstrate CNS-mediated stress | stress in Irwin test (laboratory animals; repeated oral administration): produced increased stress

CC(C)(C)NC[C@H](O)c1ccc(O)c(CO)c1 [R-salbutamol]
tachycardia in livestock animals (livestock animals): not causing tachycardia | stress in Irwin test (laboratory animals; repeated oral administration): no stress

CC(CCc1ccc(O)cc1)NCC(O)c1ccc(O)cc1 (centres unmarked) [RS]
adrenergic beta-receptor stimulating activity (adrenergic beta-receptor): reduced beta-receptor activity

CC(C)(C)NCC(O)c1ccc(O)c(CO)c1 (centres unmarked) [salbutamol]
affinity for beta-3 receptors (beta-3 receptors): negligible affinity

RR-4-hydroxy-a-[[[3-(4-hydroxyphenyl)-1-methylpropyl]amino]methyl]benzenemethanol [RR-ractopamine]
affinity for adrenergic beta-1 receptors compared with the racemic mixture of all four isomers [6]: higher affinity | effect on spontaneous motor activity (mice [7]): no statistically significant effects | binding affinity relative to the racemic mixture of all four isomers [8]: about 2.5 times | optical stability (Optical stability): optically stable | CNS-mediated stress (mice [5]; mouse, in vivo): not causing stress | stress in Irwin test (laboratory animals; mouse, in vivo, po): did not cause stress
